Data: patent US20090005419A1, “Organic Compounds” (priority 2005, published 2009)

Target: T1, HuRfl (Homo sapiens, UniProt Q15717)
T1 construct: HuRfl full length HuR protein
Assay: Competition experiments with ARE RNA binding to HuRfl (anisotropy, 2D-FIDA)
Details: dissociation constants from competition experiments with ARE RNA binding to HuRfl; 1:1:1 stoichiometric, competitive inhibition assumed
Description: (1) A cellular reporter gene assay with firefly luciferase under control of the IL-2 or TNF-α AU-rich element. This assay is designed to identify cellularly active, non-toxic inhibitors of ARE-mediated mRNA stabilization. The confirmed hits are tested in a control assay with the luciferase CDS under the IL-2 or TNF-α promoter to exclude compounds acting at the transcriptional level. By definition, the identified hit compounds interfere with posttranscriptional stabilization of short-lived ARE mRNAs at some level along the ARE pathway. (2) In vitro screen for HuR-ARE inhibitors using confocal fluctuation spectroscopy. This assay uses 2D-FIDA to monitor binding of HuR12, a shortened variant of HuR to a TMR labeled ARE RNA in solution. Compounds identified in this screen are supposed to interfere with HuR-ARE recognition by binding either to the ARE or to HuR12. (3) CONA with HuR. Combinatorial on-bead libraries are screened for high affinity HuR binders with CONA. After picking of hit beads and cleavage of on-bead binders from the solid support, the compound structures are decoded by PHPLC-MS. Binding of resynthesized hit compounds to HuR is tested in solution. As the primary result, the identified compounds represent high affinity HuR binders. Functionally, these may be inhibitors of any HuR activity including ARE recognition, nucleocytoplasmic shuttling and protection of the mRNA from ARE-dependent degradation.
The RNA fraction bound y is calculated from the anisotropy data based on y=(r−rmin)/((r−rmin)+Q(rmax−r)) with r≡ measured anisotropy, rmin, rmax≡ anisotropy of the free and HuR bound RNA, respectively, Q ≡ quenching. Dissociation constants Kd are determined by nonlinear curve fitting with KMath in Mathematica 5.0.0, assuming a 1:1:1 stoichiometric, competitive inhibition.

T1 sequence (Q15717 whole entry): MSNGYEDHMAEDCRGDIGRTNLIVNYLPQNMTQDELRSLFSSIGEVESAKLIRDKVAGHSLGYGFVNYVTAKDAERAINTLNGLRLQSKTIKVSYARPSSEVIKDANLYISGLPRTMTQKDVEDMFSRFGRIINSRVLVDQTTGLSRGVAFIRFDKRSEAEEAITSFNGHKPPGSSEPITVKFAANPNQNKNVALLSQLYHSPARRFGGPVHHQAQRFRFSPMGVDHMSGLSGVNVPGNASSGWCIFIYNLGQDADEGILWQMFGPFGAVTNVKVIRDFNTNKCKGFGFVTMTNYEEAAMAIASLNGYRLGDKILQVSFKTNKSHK

| SMILES | Kd [nM] |
| --- | --- |
| Cc1c(C(=O)NC(Cc2c[nH]c3ccccc23)C(=O)NCCCN2CCCC2=O)cc(C(=O)CN2CCCCC2)n1Cc1ccccc1 (stereo not shown) [Example 6, 1-Benzyl-2-methyl-5-(2-piperidin-1-yl-acetyl)-1H-pyrrole-3-carboxylic acid {2-(1H-indol-3-yl)-1-[3-(2-oxo-pyrrolidin-1-yl)-propylcarbamoyl]-ethyl}-amide] | 143 ± 27 |
| COCCn1c(C(=O)CN2CCC(C(N)=O)CC2)cc(C(=O)NC(CCO)C(=O)NCCCN2CCCC2=O)c1C (stereo not shown) [Example 4, 1-{2-[4-{3-Hydroxy-1-[3-(2-oxo-pyrrolidin-1-yl)-propylcarbamoyl]-propylcarbamoyl}-1-(2-methoxy-ethyl)-5-methyl-1H-pyrrol-2-yl]-2-oxo-ethyl}-piperidine-4-carboxylic acid amide] | 103 ± 20 |
| COc1cccc(CCn2c(C(=O)CN3CCCCC3)cc(C(=O)NC(CC(=O)O)C(=O)NCCCN3CCCC3=O)c2C)c1 (stereo not shown) [Example 5, 3-{[1-[2-(3-Methoxy-phenyl)-ethyl]-2-methyl-5-(2-piperidin-1-yl-acetyl)-1H-pyrrole-3-carbonyl]-amino}-N-[3-(2-oxo-pyrrolidin-1-yl)-propyl]-succinamic acid] | 104 ± 14 |
| COc1cccc(CNC(=O)c2ccc(C(=O)NC(Cc3ccc(CN)cc3)C(=O)NCc3ccc(C)cc3)cc2)c1 (stereo not shown) [Example 3, N-[2-(4-Aminomethyl-phenyl)-1-(4-methyl-benzylcarbamoyl)-ethyl]-N′-(3-methoxy-benzyl)-terephthalamide] | 92 ± 22 |
